According to ChEMBL document CHEMBL1139301, “Multifidone: a novel cytotoxic lathyrane-type diterpene having an unusual six-membered A ring from Jatropha multifida” (Bioorg Med Chem Lett, 2009):

What was measured:
Format in all cases: functional, cell-based
[1] = tested on: THP-1; test: Cytotoxicity against human THP1 cells by MTT assay
[2] = tested on: HL-60; test: Cytotoxicity against human HL60 cells by MTT assay
[3] = tested on: A549; test: Cytotoxicity against human A549 cells by MTT assay
[4] = tested on: A-375; test: Cytotoxicity against human A375 cells by MTT assay

Work on COc1cc([C@@H]2c3cc4c(cc3[C@@H](O[C@@H]3O[C@@H]5CO[C@@H](C)O[C@H]5[C@H](O)[C@H]3O)[C@H]3COC(=O)[C@H]23)OCO4)cc(OC)c1O [ETOPOSIDE] yielded an IC50 [1] of 2.16 µM, an IC50 [2] of 1.83 µM and an IC50 [3] of 9.51 µM. It also gave an IC50 [4] of 3.92 µM.
In the case of CC1=CC(=O)[C@]23O[C@](C)(C=C2C1=O)CC[C@H]1[C@@H](C[C@H]3C)C1(C)C [MULTIFIDONE], the IC50 [1] is reported as 45.6 µM, the IC50 [2] is reported as 121 µM and the IC50 [3] is reported as 127 µM. The IC50 [4] was 159 µM.
